Measurements: US20110171714A1, “CRYSTAL STRUCTURE OF TAK1-TAB1” (VERTEX PHARMACEUTICALS INCORPORATED, priority 2005, published 2011)

T1: TAK1 kinase domain (residues I31-Q303) of human transforming growth factor-beta-activated kinase 1, as part … (human, UniProt O43318 31-303)
T1 construct: range 31-303; In the crystal this domain is not a separate chain; Its C-terminus (Q303) is fused directly, without linker, to TAB1 H468-P504, giving one polypeptide; It was expressed in baculovirus/Hi5 cells and is unphosphorylated; The N-terminal His6 tag was removed by thrombin; also called TAK1 catalytic kinase domain
T1 sequence (looked up): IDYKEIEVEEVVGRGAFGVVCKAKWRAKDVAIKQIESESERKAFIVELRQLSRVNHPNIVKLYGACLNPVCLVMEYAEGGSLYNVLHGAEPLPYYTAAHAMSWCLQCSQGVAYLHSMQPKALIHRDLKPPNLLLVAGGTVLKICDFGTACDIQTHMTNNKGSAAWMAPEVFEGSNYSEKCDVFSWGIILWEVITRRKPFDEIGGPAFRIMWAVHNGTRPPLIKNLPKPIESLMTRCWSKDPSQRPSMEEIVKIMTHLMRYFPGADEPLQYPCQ


What was measured:
[1] = test system: picryl chloride-induced ear swelling; details: picryl chloride-induced ear swelling mouse model; cited from earlier work
[2] = target: T1, TAK1 kinase domain (residues I31-Q303) …; experiment: X-ray crystal structure of the TAK1(I31-Q303)/TAB1(H468-P504) chimera (both parts in one fused chain)

Row | binding result [2] | Molecule | effect on inflammation [1]
1 |  | COc1cc(O)c2c(c1)/C=C/C[C@H](O)[C@H](O)C(=O)/C=C\C[C@H](C)OC2=O [5Z-7-oxozeaenol] | relieves inflammation
2 | binds | HSLPPGEDGRVEPYVDFAEFYRLWSVDHGEQSVVTAP (peptide, UniProt Q15750 468-504, looked up, range 468-504; In the crystal this segment is not a separate chain; It is fused directly to the C-terminus of TAK1 I31-Q303; also called Tab1 peptide) | 
